Measurements published in patent publication US11548875B2, “Inhibitor compounds for male contraception” (University of Washington, priority 2018, dated 2023).
Where a name gives a salt, the structure may show the parent alone. Read-outs that look alike come from different tables or passages of the source.

Experiments:
[1] = biological target: T1, ALDH1A1 (Homo sapiens, UniProt P00352); experiment: Cell-based enzyme assay, retinoic acid production in ALDH1A1/H1299 cells
T1 sequence (P00352 1-501): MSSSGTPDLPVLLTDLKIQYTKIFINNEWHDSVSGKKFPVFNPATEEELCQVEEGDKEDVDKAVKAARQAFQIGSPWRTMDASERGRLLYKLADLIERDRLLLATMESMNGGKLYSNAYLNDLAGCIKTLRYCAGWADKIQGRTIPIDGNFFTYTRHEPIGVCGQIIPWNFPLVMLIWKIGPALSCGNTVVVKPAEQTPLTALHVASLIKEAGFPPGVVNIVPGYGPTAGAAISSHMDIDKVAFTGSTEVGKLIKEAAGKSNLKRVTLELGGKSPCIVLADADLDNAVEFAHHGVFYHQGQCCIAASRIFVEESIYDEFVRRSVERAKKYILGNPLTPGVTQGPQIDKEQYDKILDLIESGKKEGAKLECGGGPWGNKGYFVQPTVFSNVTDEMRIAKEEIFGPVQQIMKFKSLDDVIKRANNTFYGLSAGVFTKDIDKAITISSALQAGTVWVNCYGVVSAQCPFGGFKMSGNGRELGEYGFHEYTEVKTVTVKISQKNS
Method in brief: (§1)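 ALDH1A1- or ALDH1A2-stably transfected H1299 cells grown to confluence, then treated 20 h in serum-free RPMI-1640 with 2 μM all-trans-retinal plus varying inhibitor concentrations at 37 °C. Retinoic acid in cells and media quantified; inhibition from RA levels with vs without inhibitor.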

[2] = biological target: T2, ALDH1A2 (Homo sapiens, UniProt O94788); experiment: Inhibitor screening using purified enzymes: ALDH1A2 activity, retinoic acid production by HPLC (5 uM initial screen, then IC50); type: biochemical; parameters: histidine-tag (C); made in house; host or cells: bacterial expression (pET28 vector, IPTG induction); conditions: purified enzyme
T2 sequence (O94788 1-518): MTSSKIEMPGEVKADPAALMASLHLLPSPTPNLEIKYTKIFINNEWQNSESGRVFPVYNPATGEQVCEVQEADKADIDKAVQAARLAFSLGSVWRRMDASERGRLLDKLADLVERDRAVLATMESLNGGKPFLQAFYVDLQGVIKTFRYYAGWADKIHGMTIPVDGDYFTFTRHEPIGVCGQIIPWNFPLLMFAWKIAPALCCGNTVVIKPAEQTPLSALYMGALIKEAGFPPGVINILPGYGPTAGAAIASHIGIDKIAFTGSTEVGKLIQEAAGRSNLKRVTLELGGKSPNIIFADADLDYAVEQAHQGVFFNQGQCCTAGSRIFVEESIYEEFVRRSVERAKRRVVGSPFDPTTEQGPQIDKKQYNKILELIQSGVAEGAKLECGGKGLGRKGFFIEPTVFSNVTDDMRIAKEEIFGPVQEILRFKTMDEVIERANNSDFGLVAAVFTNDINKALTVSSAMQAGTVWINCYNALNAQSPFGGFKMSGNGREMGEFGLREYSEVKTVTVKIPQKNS
Method in brief: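 Purified His-tagged human enzymes in 10 mM HEPES pH 8.0, 150 mM KCl, 2 mM EDTA with 2 mM NAD, all-trans-retinal substrate; retinoic acid quantified by HPLC. ALDH1A2 initial screen: 1 μg enzyme, 5 μM retinal, 5 μM inhibitor, 15 min, 37° C; IC50 runs: 0.5 μg enzyme, 0.5 μg retinal, 5 min, 37° C.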

[3] = biological target: T2, ALDH1A2; experiment: Cell-based enzyme assay, retinoic acid production in ALDH1A2/H1299 cells
Method in brief: as §1

Compound	EC50 ([1]; cell-based) [µM]	IC50 [2] [µM]	EC50 ([3]; cell-based) [µM]	EC50 [1] [µM]	EC50 [3] [µM]
3-(4-Acryloylphenyl)-1-phenyl-1H-pyrazole-4-carbaldehyde [Compound 309]	0.73	0.005	0.87	–	–
3-{4-[(Chloroacetyl)amino]phenyl}-N-(3-fluorophenyl)-1-phenyl-1H-pyrazole-4-carboxamide [Compound 294]	< 0.005	0.025	< 0.005	–	–
O=Cc1cn(-c2ccccc2)nc1-c1ccc(O)cc1 [Cmpd 34]	0.469	1.73	0.798	–	–
CS(=O)(=O)c1ccc(-c2nn(-c3ccccc3)cc2C(=O)Nc2cccc(F)c2)cc1 [Compound 178, 3-(4-(Methylsulfonyl)phenyl)-N-(3-fluorophenyl)-1-phenyl-1H-pyrazole-4-carboxamide]	5.5	0.192	0.065	–	–
CS(=O)(=O)c1ccc(-c2nn(-c3ccccc3)cc2C(=O)Nc2cccc(Cl)c2)cc1 [Compound 219, 3-(4-(Methylsulfonyl)phenyl)-N-(3-chlorophenyl)-1-phenyl-1H-pyrazole-4-carboxamide]	> 20	0.606	0.11	–	–
CS(=O)(=O)c1ccc(-c2nn(-c3ccccc3)cc2C(=O)Nc2cccc(F)c2O)cc1 [Compound 231, N-(3-Fluoro-2-hydroxyphenyl)-3-[4-(methylsulfonyl)phenyl]-1-phenyl-1H-pyrazole-4-carboxamide]	> 20	0.323	0.069	–	–
CS(=O)(=O)c1ccc(-c2nn(-c3ccc(C#N)cc3)cc2C(=O)Nc2cccc(C(F)(F)F)c2)cc1 [Compound 262, 1-(4-Cyanophenyl)-N-(3-trifluoromethylphenyl)-3-[4-(methylsulfonyl)phenyl]-1H-pyrazole-4-carboxamide]	> 20	0.352	0.016	–	–
CS(=O)(=O)c1ccc(-c2nn(-c3cccc(F)c3)cc2C(=O)Nc2cccc(C(F)(F)F)c2)cc1 [Compound 266, 1-(3-Fluorophenyl)-N-(3-trifluoromethylphenyl)-3-[4-(methylsulfonyl)phenyl]-1H-pyrazole-4-carboxamide]	> 20	0.029	0.354	–	–
N#Cc1ccc(-n2cc(C(=O)Nc3cccc(F)c3)c(-c3ccc(NC(=O)C(Cl)Cl)cc3)n2)cc1 [Compound 316a, 3-(4-Dichloroacetamidophenyll)-N-(3-fluorophenyl)-1-(4-cyanophenyl)-1H-pyrazole-4-carboxamide]	0.18	0.037	0.013	–	–
CCOc1ccsc1C(=O)N1CCN(c2ccc([N+](=O)[O-])c(N3CCCC3)c2)CC1 [Compound 326, {4-[4-Nitro-3-(pyrrolidin-1-yl)phenyl]piperazin-1-yl}(3-ethoxythiophen-2-yl)methanone]	–	0.058	–	0.44	0.11
COc1ccsc1C(=O)N1CCN(c2ccc([N+](=O)[O-])c(N3CCCC3)c2)CC1 [Compound 329, {4-[4-Nitro-3-(pyrrolidin-1-yl)phenyl]piperazin-1-yl}(3-methoxythiophen-2-yl)methanone]	–	0.079	–	< 0.5	< 0.5
O=C(c1ccccc1)N1CCN(c2ccc([N+](=O)[O-])c(N3CCCC3)c2)CC1 [Compound 339, Phenyl-1-{4-[4-nitro-3-(pyrrolidin-1-yl)phenyl]piperazin-1-yl}methanone]	–	0.837	–	0.333	0.293

Further lines, results first:

EC50 ([1]; cell-based) [µM]	IC50 [2] [µM]	EC50 ([3]; cell-based) [µM]	EC50 [1] [µM]	EC50 [3] [µM]	Compound
2	0.081	0.12	–	–	CS(=O)(=O)c1ccc(-c2nn(-c3ccccc3)cc2C(=O)Nc2cccc(O)c2)cc1 [Compound 211, 3-(4-(Methylsulfonyl)phenyl)-N-(3-hydroxyphenyl)-1-phenyl-1H-pyrazole-4-carboxamide]
1.3	0.208	0.088	–	–	CCS(=O)(=O)c1ccc(-c2nn(-c3ccccc3)cc2C(=O)Nc2cccc(F)c2)cc1 [Compound 223, 3-(4-(Ethylsulfonyl)phenyl)-N-(3-fluorophenyl)-1-phenyl-1H-pyrazole-4-carboxamide]
13.2	0.795	0.055	–	–	CS(=O)(=O)c1ccc(-c2nn(-c3ccc(Cl)cc3)cc2C(=O)Nc2ccccc2O)cc1 [Compound 233, N-(2-Hydroxyphenyl)-3-[4-(methylsulfonyl)phenyl]-1-(4-chloropheny)-1H-pyrazole-4-carboxamide]
10.9	0.092	0.056	–	–	CS(=O)(=O)c1ccc(-c2nn(-c3ccc(F)cc3)cc2C(=O)Nc2cccc(F)c2)cc1 [Compound 241, N-(3-Fluorophenyl)-3-[4-(methylsulfonyl)phenyl]-1-(4-fluorophenyl)-1H-pyrazole-4-carboxamide]
26.4	0.112	0.051	–	–	CS(=O)(=O)c1ccc(-c2nn(-c3ccc(OC(F)(F)F)cc3)cc2C(=O)Nc2cccc(F)c2)cc1 [Compound 258, N-(3-Fluorophenyl)-1-(4-trifluoromethoxypheny)-3-[4-(methylsulfonyl)phenyl]-1H-pyrazole-4-carboxamide]
2.43	0.84	0.026	–	–	CS(=O)(=O)c1ccc(-c2nn(-c3cccc(C#N)c3)cc2C(=O)Nc2cccc(F)c2)cc1 [Compound 268, 1-(3-Cyanophenyl)-N-(3-fluorophenyl)-3-[4-(methylsulfonyl)phenyl]-1H-pyrazole-4-carboxamide]
3.56	0.238	0.045	–	–	CS(=O)(=O)c1ccc(-c2nn(-c3cccc(C#N)c3)cc2C(=O)Nc2ccc(F)c(F)c2)cc1 [Compound 269, 1-(3-Cyanophenyl)-N-(3,4-difluorophenyl)-3-[4-(methylsulfonyl)phenyl]-1H-pyrazole-4-carboxamide]
–	0.103	–	0.195	0.457	CCc1ccc(C(=O)N2CCN(c3ccc([N+](=O)[O-])c(N4CCCC4)c3)CC2)s1 [Compound 323, {4-[4-Nitro-3-(pyrrolidin-1-yl)phenyl]piperazin-1-yl}(5-ethylthiophen-2-yl)methanone]
–	0.313	–	> 0.5	0.862	Cc1cc(C(=O)N2CCN(c3ccc([N+](=O)[O-])c(N4CCCC4)c3)CC2)sc1C [Compound 327, {4-[4-Nitro-3-(pyrrolidin-1-yl)phenyl]piperazin-1-yl}(4,5-dimethylthiophen-2-yl)methanone]
–	0.062	–	0.088	0.121	Nc1ccsc1C(=O)N1CCN(c2ccc([N+](=O)[O-])c(N3CCCC3)c2)CC1 [Compound 331, {4-[4-Nitro-3-(pyrrolidin-1-yl)phenyl]piperazin-1-yl}(3-aminothiophen-2-yl)methanone hydrochloride]
–	0.388	–	0.413	0.437	CC(=O)Nc1ccsc1C(=O)N1CCN(c2ccc([N+](=O)[O-])c(N3CCCC3)c2)CC1 [Compound 332]
–	1.33	–	0.26	0.377	O=C(c1ccc(F)s1)N1CCN(c2ccc([N+](=O)[O-])c(N3CCCC3)c2)CC1 [Compound 334, {4-[4-Nitro-3-(pyrrolidin-1-yl)phenyl]piperazin-1-yl}(5-fluorothiophen-2-yl)methanone]
